Earlier results on three molecules are cited in publication PMC10687071 (The Journal of Biological Chemistry, 2023).

The subject of data set [1] is PAS domains of ERG3 channels. On the set-up: method as in PMID 32723862. To be noted: cited from earlier work.
Data set [2] has as its system PAS domains of EAG channels. Details: method as in PMID 31315662, PMID 32047112. The settings on record: cited from earlier work.

As to `C=CC1=C(C)c2cc3[n-]c(cc4[n-]c(cc5nc(cc1n2)C(C)=C5C=C)c(C)c4CCC(=O)O)c(CCC(=O)O)c3C.[Fe+2]` [heme], in data set [1], the “Binding to PAS domains of ERG3 channels” value is “bind”.
For the molecule `C=CCCCCCCCCC(=O)O` [undecylenic acid], the “Binding to PAS domains of EAG channels” value in data set [2] was “bind”.
Regarding `CN(C)CCCN1c2ccccc2Sc2ccc(Cl)cc21` [chlorpromazine], the “Binding to PAS domains of EAG channels” value in data set [2] is on record as “bind”.
